# Measured values taken from patent publication US20220088024A1, “METHODS FOR TREATING CANCER USING TOZADENANT” (Biotie Therapies, Inc., priority 2018, published 2022).
# “And” between values parts separate entries of the source, which are not always exact repeats. Equal entries are not always repeated. Where two headings read alike, the source gives them in different places.
# Legend:
# [1] = test system: AT-3ova CD73+ tumour (mouse breast carcinoma cell line AT-3); assay: Example 1: anti-tumor responses of SYN-115 in the AT-3ova CD73+ tumour cell mouse model (tumor area); type: in vivo, C57/BL6 mice
# Protocol: The C57BL/6 mouse breast carcinoma cell line AT-3 was obtained from Dr. Trina Stewart (Griffith University, Nathan, QLD, Australia. Tumor cell lines were transduced to express chicken ovalbumin peptide and CD73 as previously described (1, 2, 3). Tumor cells are periodically verified to be Mycoplasma negative by the Victorian Infectious Diseases References Lab (Melbourne, VIC, Australia) by PCR analysis. Tumor cells were grown in DMEM supplemented with 10% FCS, GlutaMAX, and penicillin/streptomycin. 5×10^5 cells were resuspended in PBS and injected s.c. into C57/BL6 mice in a 100 μL volume. At day 14 tumors were measured and mice were randomized into distinct treatment groups to ensure that each group had tumors of similar size at the onset of treatment. Mice were treated i.p. at days 14, 18, 22, and 26 with either isotype control (2A3; 200 μg/mouse) or anti-PD-1 mAb (RMP1-14, 200 μg/mouse) and where indicated SYN-115 (Batch 71236AA002) at the indicated dose or vehicle control once-daily via oral gavage on days 14 to 29. To calculate a dose of SYN-115, mouse weight was estimated to be 20 g per mouse. Therefore, 100 mg/kg=2 mg per mouse in 200 μL, which is equivalent to 10 mg/ml. […] Tumor sizes were determined by width * length and mice were culled when tumors reached the ethical limit of 150 mm^2.
# [2] = test system: CT26 colon carcinoma tumor; assay: Example 4: anti-tumor responses of SYN-115 in the CT26 tumor mouse model (tumor area, survival); type: in vivo, BALB/c mice; parameters: key: tumor area, width*length, in mm^2
# Protocol: The BALB/c mouse colon carcinoma cell line CT26 was cultured in RPMI supplemented with 10% FCS, GlutaMAX, and penicillin/streptomycin. Tumor cells are periodically verified to be Mycoplasma negative by the Victorian Infectious Diseases References Lab (Melbourne, VIC, Australia) by PCR analysis. 1×10^5 cells were resuspended in PBS and injected s.c. into BALB/c mice in a 100 μL volume. At day 9, tumors were measured and mice were randomized into distinct treatment groups to ensure that each group had tumors of similar size at the onset of treatment. Mice were treated i.p. at days 9, 13 and 17 with either isotype control (2A3; 200 μg/mouse) or anti-PD-1 mAb (RMP1-14, 200 μg/mouse) and where indicated, SYN-115 (Batch 71236AA002) at the indicated dose or vehicle control once-daily via oral gavage on days 14 to 29. To calculate a dose of SYN-115 mouse weight was estimated to be 20 g per mouse. Therefore, 100 mg/kg=2 mg per mouse in […] which is equivalent to 10 mg/ml. To make up 40 mL, 400 milligrams of SYN-115 was weighed and added into a Falcon tube, then 1 mL of Tween 80 was added and mixed into a paste and then 39 mL of 1% Methyl Cellulose was added. The solution was vortexed and then left on a rotating mixer for at least 2 hours and maintained at 4° C. Tumor measurements were taken 2-3 times per week. Tumor sizes were determined by width * length and mice were culled when tumors reached the ethical limit of 150 mm^2.
# [3] = Example 13: calculation of predicted human dose from mouse and human PK; conditions: for AUC: mouse, plasma
# Protocol: Using the PK data above in mice and humans, a human efficacious dose was estimated by identifying a dose in humans that would result in plasma exposures similar to the efficacious dose in the oncology models in mice. The 100 mg/kg/day dose studied for PK in mice and the 180 mg dose studied for PK in humans were the relevant doses used in this estimation.
# This predicted human efficacious dose for tozadenant for treating cancer based on the measured PK data can be contrasted to the predicted dose that would be calculated by the less informed but standard approach of using body surface area comparisons between mice and humans, whereby the equivalent dose in humans would be calculated by dividing the dose in mice by 12.3 (see, e.g., Nair A B, Jacob S. A simple practice guide for dose conversion between animals and human. J Basic Clin Pharma 2016;7:27-31). This approach would result in a predicted efficacious dose of 0.24 mg/kg in humans, which is equivalent to approximately 17 mg in a typical 70 kg human. Thus, this prediction using the standard method results in a targeted human dose more than an order of magnitude higher than the one informed by PK.
# [4] = test system: B16F10 Cherry melanoma metastases; assay: Example 10: number of lung tumor metastases in the B16F10 tumor mouse model; type: in vivo, C57/BL6 mice; conditions: 100 mg/kg once-daily oral gavage days 0 to 13, counted day 14, Batch 71236AA006
# Protocol: The C57/BL6 mouse melanoma cell line B16F10 Cherry was cultured in DMEM supplemented with 10% FCS, GlutaMAX, and penicillin/streptomycin. Tumor cells are periodically verified to be Mycoplasma negative by the Victorian Infectious Diseases References Lab (Melbourne, VIC, Australia) by PCR analysis. 2×10^5 cells were resuspended in PBS and injected i.v. into C57/BL6 mice in a 200 μL volume. At day 14 lungs were excised and the number of metastases counted under the dissecting microscope. Mice were dosed with either SYN-115 (Batch 71236AA006) at 100 mg/kg or vehicle control once-daily via oral gavage on days 0 to 13. To calculate a dose of SYN-115 mouse weight was estimated to be 20 g per mouse. Therefore, 100 mg/kg=2 mg per mouse in 200 μL, which is equivalent to 10 mg/ml. To make up 40 mL, 400 milligrams of SYN-115 was weighed and added into a Falcon tube, then 1 mL of Tween 80 was added and mixed into a paste and then 39 mL of 1% Methyl Cellulose was added. Solution was vortexed and then left on a rotating mixer for at least 2 hours and maintained at 4° C.
smiles,measurement,setting,value
"COc1ccc(N2CCOCC2)c2sc(NC(=O)N3CCC(C)(O)CC3)nc12 [SYN-115, 4-hydroxy-4-methyl-piperidine-1-carboxylic acid (4-methoxy-7-morpholin-4-yl-benzothiazol-2-yl)-amide]",Tumor size (width * length),"[1]; 2A3+SYN-115 (100 mg/kg), Day 6",23.5 mm^2 and 27.03 mm^2 and 30.74 mm^2 and 17.5 mm^2 and 33.6 mm^2
same,Tumor size (width * length),"[1]; Anti-PD-1 (200 ug)+SYN-115 (100 mg/kg), Day 0",13.76 mm^2 and 14 mm^2 and 17.2 mm^2 and 17.49 mm^2 and 26.22 mm^2 and 26.4 mm^2
same,Raw Tumor Measurements,"[2]; 2A3 (200 μg/mouse)+SYN-115 (30 mg/kg), Day 0",12.71 and 14.85 and 16.32 and 18.92 and 20.16 and 22.36
same,Raw Tumor Measurements,"[2]; 2A3 (200 μg/mouse)+SYN-115 (30 mg/kg), Day 4",37.62 and 42.12 and 40.7 and 53.2 and 38.4 and 52.56
same,Raw Tumor Measurements,"[2]; 2A3 (200 μg/mouse)+SYN-115 (30 mg/kg), Day 13",146.41 and 150.7 and 93.93 and 186.83
same,Raw Tumor Measurements,"[2]; 2A3 (200 μg/mouse)+SYN-115 (30 mg/kg), Day 15",188.94 and 100.8
same,Raw Tumor Measurements,"[2]; 2A3 (200 μg/mouse)+SYN-115 (30 mg/kg), Day 19",186.12
same,Raw Tumor Measurements,"[2]; 2A3 (200 μg/mouse)+SYN-115 (100 mg/kg), Day 0",12.76 and 14.8 and 17 and 18.9 and 20.5 and 21.12
same,Raw Tumor Measurements,"[2]; 2A3 (200 μg/mouse)+SYN-115 (100 mg/kg), Day 4",44.73 and 41.31 and 42.7 and 41.76 and 49.64 and 25.85
same,Raw Tumor Measurements,"[2]; 2A3 (200 μg/mouse)+SYN-115 (100 mg/kg), Day 6",53.4 and 59.78 and 73.04 and 58.32 and 71.76 and 42.92
same,Raw Tumor Measurements,"[2]; 2A3 (200 μg/mouse)+SYN-115 (100 mg/kg), Day 8",66.75 and 90.2 and 89 and 87.4 and 94.08 and 51.84
same,Raw Tumor Measurements,"[2]; 2A3 (200 μg/mouse)+SYN-115 (100 mg/kg), Day 13",187.53 and 175.56 and 213.12 and 203.68 and 164.56 and 110.4
same,Raw Tumor Measurements,"[2]; 2A3 (200 μg/mouse)+SYN-115 (100 mg/kg), Day 15",151.42
same,Raw Tumor Measurements,"[2]; Anti-PD-1 (200 ug)+SYN-115 (30 mg/kg), Day 22",108 and 136.64 and 120.64
same,Raw Tumor Measurements,"[2]; Anti-PD-1 (200 ug)+SYN-115 (30 mg/kg), Day 25",160.95 and 151.2 and 159.6
same,AUC,"[3]; oral, mice, 3 mg/kg efficacious dose, read-out: Point estimate AUC (linear extrapolation)",~106 ng·h/mL
same,AUC,"[3]; 2 mg/kg dose in mice, read-out: Target AUC in humans",71 ng·h/mL
same,Predicted human dose achieving target AUC,[3]; target AUC of 71 hr*ng/mL (2 mg/kg mouse dose),approximately 0.6 mg
same,Predicted human dose achieving target AUC,[3]; target AUC of 106 hr*ng/mL (3 mg/kg mouse dose),approximately 0.9 mg
same,"Number of Tumor Metastases (lung), individual mice",[4]; AC#009 Males,0 (2×) and 9 and 5 and 16 and 13 and 1
same,"Number of Tumor Metastases (lung), individual mice",[4]; AC#010 Females,166 and 38 and 141 and 32 and 137 and 264 and 23 and 226
